Patent publication EP0320366A1, “Monoclonal antibodies against phospholipase A2 from the venom of snakes of the families Elapides and Hidrophides, methods for their preparation and their use in detecting poisoning caused by these snake families” (COMMISSARIAT A L'ENERGIE ATOMIQUE, priority 1987, dated 1989)

Tests used:
[1] = target: T1, notexine (PLA₂ du venin de Notechis scutatus scutatus) en présence d'anticorps MN₁ (Notechis scutatus scutatus, UniProt P00608); assay: Enzymatic activity of notexin pre-incubated with monoclonal antibody MN₁, by pH-stat titration and Lineweaver-Burk analysis; assay type: biochemical; conditions: same substrate and conditions; MN₁ in 10-fold molar excess over notexin, pre-incubated 1 h at room temperature; read graphically; also printed as 0,034 M
T1 sequence (P00608 1-119): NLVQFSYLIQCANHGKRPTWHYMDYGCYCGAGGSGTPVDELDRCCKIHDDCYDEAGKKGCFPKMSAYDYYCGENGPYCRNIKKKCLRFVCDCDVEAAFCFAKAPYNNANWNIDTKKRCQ
Procedure: (§1) La mesure de l'activité enzymatique est réalisée à l'aide d'un appareil pH stat (Methrom). Les acides gras libérés sont titrés à pH constant (pH = 8), par une solution d'hydroxyde de Na 0,01 N à 40°C.
(§2) Le substrat est une émulsion de phosphatidylcholine (Halpert - Eaker, 1975), dans une solution de CaCl₂ 20 mM, NaCl 0,12 M, en présence de désoxycholate de sodium.
(§3) Le rapport concentration finale de phosphatidylcholine/concentration finale de désoxycholate de sodium est maintenu constant, égal à 3,7.
(§4) Les solutions initiales sont : phosphatidylcholine : 600 mM dans l'éthanol, désoxycholate de sodium : 270 mM dans H₂O. Le volume réactionnel final est de 4 ml.
(§5) Les volumes de soude ajoutés pour maintenir le pH constant sont enregistrés automatiquement en fonction du temps.
Les anticorps monoclonaux sont dialysés pendant 24 heures dans la solution de CaCl₂ utilisée pour effectuer les mesures, afin d'éviter une modification du pH du milieu réactionnel, lors de l'addition des anticorps. Ils sont incubés avec la notexine pendant une heure à température ambinate.
L'activité enzymatique de la notexine ainsi traitée, est alors mesurée.
L'analyse cinétique de la réaction enzymatique a été faite par deux méthodes : mesure de Vi et mesure de Vmax. […]

[2] = target: T2, notexine (PLA₂ du venin de Notechis scutatus scutatus), notexine seule (Notechis scutatus scutatus, UniProt P00608); assay: Enzymatic activity of notexin by pH-stat titration of released fatty acids, Lineweaver-Burk analysis; assay type: biochemical; conditions: substrate: phosphatidylcholine emulsion 7,5-82,5 mM with sodium deoxycholate (ratio 3,7), CaCl₂ 20 mM, NaCl 0,12 M, pH 8, 40°C; notexin 0,5 µg/4 ml; read graphically; also printed as 0,034 M
T2 sequence (P00608 1-119): T1 sequence (P00608 1-119)
Procedure: as §1, §2, §3, §4, §5
L'analyse cinétique de la réaction enzymatique a été faite par deux méthodes : mesure de Vi et mesure de Vmax.
Pour l'étude de Vi = f( [S] ) et 1/Vi = f(1/ [S]), à concentration de notexine constante ( [Et] = 0,5 µg/4 ml), la concentration de substrat varie de 7,5 mM à 82,5 mM. La mesure est réalisée en absence et en présence d'anticorps monoclonaux polyspécifiques MN₁, en excès molaire de 10 par rapport à la notexine. […]

phosphatidylcholine was tested, and the Km [1] was 34 mM and the Km [2] was 34 mM.
